Legend:
[1] = prior art statement; cited from earlier work
[2] = Solubility in solvents (qualitative); conditions: for Löslichkeit im Alkohol: Alkohol (Ethylalkohol)
[3] = Storage stability (qualitative); format: physicochemical; conditions: result in words
Acremonium corvum = assay: Fungicidal activity, inhibition of mycelium growth on wort agar; format: cell-based
Description: (§1) Man prüfte die funguzide Aktivität von Zink-bis-(N-vi- nyloxyethyl)dithiocarbamat gegenüber den reinen Pilzkulturen: Gladosporium resinae, Cladosporium cladosporioides, Acremonium corvum, Acremonium charticola, Penicillium charlesii Smith, Walrotiela subiculesa, Geotrichum candidum Link, Oidium, Penicillium crysogenum. Die genannten Pilze wurden von den Oberflächen der Wände und Decken von Bierbrauereien und Werken für die Herstellung von alkoholfreien Getränken ausgeschieden.
(§2) […] In eine der Petri-Schalen wurde Nährboden mit 1 ml Azeton (Kontrolle) gegossen.
(§3) In 18 bis 20 Stunden nach dem Vergießen des Nährbodens in die Petri-Schalen führte man die Inokulation der reinen Pilzkultur durch, die vorher an einem Schräg-Würzeagar während 15 Tage gezüchtet wurden. Die Inkubation führte man bei einer Temperatur von 25 bis 27°C während 5 Tage durch. Danach wurde der Durchmesser der Pilzkolonien gemessen und der Prozentsatz der Hemmung des Wachstums des Myzeliums (S) nach der Abbott -Formel gezählt: [formula] worin dc Durchmesser der Pilzkolonien in Kontrolle ist, de =Durchmesser der Pilzkolonien in einer Schale mit dem Nährboden ist, der Zink-bis-(N-vinyloxyethyl)dithiocarbamat enthält.

Acremonium charticola = assay: as above; format: cell-based
Description: as §1, §2, §3

[4] = system: Cladosporium cladosporioides; assay: as above; format: cell-based
Description: as §1, §2, §3

Walrotiela subiculesa = assay: as above; format: cell-based
Description: as §1, §2, §3

Oidium = assay: as above; format: cell-based
Description: as §1, §2, §3

[5] = system: Penicillium charlesii Smith; assay: as above; format: cell-based
Description: as §1, §2, §3

Geotrichum candidum Link = assay: as above; format: cell-based
Description: as §1, §2, §3

Cladosporium resinae = assay: as above; format: cell-based
Description: as §1, §2, §3

Penicillium chrysogenum = assay: as above; format: cell-based
Description: as §1, §2, §3

weißen Mäusen = assay: Acute toxicity in white mice
[6] = Acute toxicity in white mice; conditions: mouse, in vivo, ip
[7] = system: Schimmelpilzen, die die Bewachsung von Oberflächen hervorrufen; assay: Fungicidal activity, summary over all tested fungi; format: cell-based; conditions: day 5
Description: as §1
Es wurden Lösungen des Zink-bis-(N-vinyloxyethyl)di- thiocarbamats im Azeton verschiedener Konzentration hergestellt, die so berechnet wurde, daß bei der Einführung vor 1 ml Lösung in 10 ml des geschmolzenen Würzeagars (45-50°C) die Konzentration des genannten Stoffes im Medium von 0,0015 bis 0,012% betrug. In eine der Petri-Schalen wurde Nährboden mit 1 ml Azeton (Kontrolle) gegossen.
as §3

p.Pseudomonas = assay: Bactericidal activity, growth on agar medium; format: cell-based; conditions: 37°C, 5 Tage
Description: (§4) Die bakterizide Aktivität des Kalium N-(vinyloxyethyl)-dithiocarbamats gegenüber den Bakterien, die von der Oberfläche von Wänden und Decken der Produktionsräume von Brauereien und Fabriken zur Herstellunq von alkoholfreien Getränken ausgeschieden wurden und die zu p.p.Bacillus, Micrococcus, Pseudomonas, Escherichiae gehören, wurde geprüft.
(§5) Es wurden wäßrige Lösungen des genannten Stoffes verschiedener Konzentration hergestellt, die so berechnet wurde, daß bei Einführung von 1 ml der Lösung in 25 ml geschmolzenen agarisierten Nährboden (45-50°C) die Konzentration des Stoffes im Nährboden von 0,003 bis 0,5% betrug. In 18 bis 24 Stunden wurde auf die Oberfläche des Nährbodens 0,1 ml der wäßrigen Suspension der eintägigen reinen Bakterienkulturen aufgetragen, die am Fleisch-Pepton-Agar gezüchtet wurden. Die Suspension wurde gleichmäßig verteilt. In Kontrollschalen wurden 0,1 ml Wasser auf der Oberfläche des Närhbodens verteilt.
(§6) Die Inkubation führte man bei einer Temperatur von 37°C während 5 Tage durch.
(§7) Die effektive Wirkung des Stoffes wurde nach dem Auftreten des Bakterienwachstums an der Oberfläche des Nährbodens bewertet.

p.Micrococcus = assay: Bactericidal activity, growth on agar medium; format: cell-based; conditions: 37°C, 5 Tage
Description: as §4, §5, §6, §7

p. Escherichiae = assay: Bactericidal activity, growth on agar medium; format: cell-based; conditions: 37°C, 5 Tage
Description: as §4, §5, §6, §7

p.Bacillus = assay: Bactericidal activity, growth on agar medium; format: cell-based; conditions: 37°C, 5 Tage
Description: as §4, §5, §6, §7

[8] = Konzentration des Stoffes 0,0015 %
[9] = Konzentration des Stoffes 0,003 %
[10] = Konzentration des Stoffes 0,006 %
[11] = Konzentration des Stoffes 0,012 %
[12] = Konzentration des Stoffes 0,1 % (0,10)
[13] = Konzentration des Stoffes 0,05 %
[14] = Konzentration des Stoffes 0,15 %

## CCCCCCCCn1sccc1=O [2-n-Oktyl-4-isothiazolinon-3]
[1]
  effektive Konzentration als Biozid für Lack- und Farbstoffe: 0,4 Masse%

## C=COCCNC(=S)[S-].[Na+] [Natrium-N-(vinyloxyethyl)dithiocarbamat]
[2]
  Löslichkeit im Alkohol: teilweise
  Löslichkeit im Azeton: teilweise
  Löslichkeit im Diethylether: unlöslich
  Löslichkeit in Wasser: gut löslich
[3]
  Lagerbeständigkeit: lagerbeständig
Acremonium corvum; [8]
  Hemmung des Myzeliums am 5. Tag des Wachstums, Acremonium corvum: 100%
Acremonium corvum; [9]
  Hemmung des Myzeliums am 5. Tag des Wachstums, Acremonium corvum: 100%
Acremonium corvum; [10]
  Hemmung des Myzeliums am 5. Tag des Wachstums, Acremonium corvum: 100%
Acremonium corvum; [11]
  Hemmung des Myzeliums am 5. Tag des Wachstums, Acremonium corvum: 100%
Acremonium charticola; [8]
  Hemmung des Myzeliums am 5. Tag des Wachstums, Acremonium charticola: 100%
Acremonium charticola; [9]
  Hemmung des Myzeliums am 5. Tag des Wachstums, Acremonium charticola: 100%
Acremonium charticola; [10]
  Hemmung des Myzeliums am 5. Tag des Wachstums, Acremonium charticola: 100%
Acremonium charticola; [11]
  Hemmung des Myzeliums am 5. Tag des Wachstums, Acremonium charticola: 100%
[4]; [8]
  Hemmung des Myzeliums am 5. Tag des Wachstums, Cladosporium cladosporioides: 100%
[4]; [9]
  Hemmung des Myzeliums am 5. Tag des Wachstums, Cladosporium cladosporioides: 100%
[4]; [10]
  Hemmung des Myzeliums am 5. Tag des Wachstums, Cladosporium cladosporioides: 100%
[4]; [11]
  Hemmung des Myzeliums am 5. Tag des Wachstums, Cladosporium cladosporioides: 100%
Walrotiela subiculesa; [8]
  Hemmung des Myzeliums am 5. Tag des Wachstums, Walrotiela subiculesa: 100%
Walrotiela subiculesa; [9]
  Hemmung des Myzeliums am 5. Tag des Wachstums, Walrotiela subiculesa: 100%
Walrotiela subiculesa; [10]
  Hemmung des Myzeliums am 5. Tag des Wachstums, Walrotiela subiculesa: 100%
Walrotiela subiculesa; [11]
  Hemmung des Myzeliums am 5. Tag des Wachstums, Walrotiela subiculesa: 100%
Oidium; [8]
  Hemmung des Myzeliums am 5. Tag des Wachstums, Oidium: 60%
Oidium; [9]
  Hemmung des Myzeliums am 5. Tag des Wachstums, Oidium: 100%
Oidium; [10]
  Hemmung des Myzeliums am 5. Tag des Wachstums, Oidium: 100%
Oidium; [11]
  Hemmung des Myzeliums am 5. Tag des Wachstums, Oidium: 100%
[5]; [8]
  Hemmung des Myzeliums am 5. Tag des Wachstums, Penicillium charlesii Smith: 25%
[5]; [9]
  Hemmung des Myzeliums am 5. Tag des Wachstums, Penicillium charlesii Smith: 40%
[5]; [10]
  Hemmung des Myzeliums am 5. Tag des Wachstums, Penicillium charlesii Smith: 90%
[5]; [11]
  Hemmung des Myzeliums am 5. Tag des Wachstums, Penicillium charlesii Smith: 100%
Geotrichum candidum Link; [8]
  Hemmung des Myzeliums am 5. Tag des Wachstums, Geotrichum candidum Link: 5%
Geotrichum candidum Link; [9]
  Hemmung des Myzeliums am 5. Tag des Wachstums, Geotrichum candidum Link: 40%
Geotrichum candidum Link; [10]
  Hemmung des Myzeliums am 5. Tag des Wachstums, Geotrichum candidum Link: 75%
Geotrichum candidum Link; [11]
  Hemmung des Myzeliums am 5. Tag des Wachstums, Geotrichum candidum Link: 100%
Cladosporium resinae; [8]
  Hemmung des Myzeliums am 5. Tag des Wachstums, Cladosporium resinae: 100%
Cladosporium resinae; [9]
  Hemmung des Myzeliums am 5. Tag des Wachstums, Cladosporium resinae: 100%
Cladosporium resinae; [10]
  Hemmung des Myzeliums am 5. Tag des Wachstums, Cladosporium resinae: 100%
Cladosporium resinae; [11]
  Hemmung des Myzeliums am 5. Tag des Wachstums, Cladosporium resinae: 100%
Penicillium chrysogenum; [8]
  Hemmung des Myzeliums am 5. Tag des Wachstums, Penicillium chrysogenum: 5%
Penicillium chrysogenum; [9]
  Hemmung des Myzeliums am 5. Tag des Wachstums, Penicillium chrysogenum: 20%
Penicillium chrysogenum; [10]
  Hemmung des Myzeliums am 5. Tag des Wachstums, Penicillium chrysogenum: 80%
Penicillium chrysogenum; [11]
  Hemmung des Myzeliums am 5. Tag des Wachstums, Penicillium chrysogenum: 100%
weißen Mäusen; result in words
  Toxizität für Warmblüter: wenig toxisch
[6]
  LD50: 260 mg/kg

## Kupfer-N-(vinyloxyethyl)dithiocarbamat
[2]
  Löslichkeit im Alkohol: teilweise löslich
  Löslichkeit im Azeton: teilweise löslich
  Löslichkeit im Diethylether: unlöslich
  Löslichkeit in Wasser: unlöslich
[2]; Dimethylsulfoxid
  Löslichkeit im Dimethylsulfoxid: gut
[3]
  Lagerbeständigkeit: lagerbeständig
[7]
  Konzentration, bei der die Entwicklung aller untersuchten Pilze vollständig gehemmt wurde: 0,15%
Acremonium corvum; [12]
  Hemmung des Myzeliums am 5. Tag des Wachstums, Acremonium corvum: 100%
Acremonium corvum; [13]
  Hemmung des Myzeliums am 5. Tag des Wachstums, Acremonium corvum: 50%
Acremonium corvum; [14]
  Hemmung des Myzeliums am 5. Tag des Wachstums, Acremonium corvum: 100%
Acremonium charticola; [12]
  Hemmung des Myzeliums am 5. Tag des Wachstums, Acremonium charticola: 100%
Acremonium charticola; [13]
  Hemmung des Myzeliums am 5. Tag des Wachstums, Acremonium charticola: 43%
Acremonium charticola; [14]
  Hemmung des Myzeliums am 5. Tag des Wachstums, Acremonium charticola: 100%
[4]; [12]
  Hemmung des Myzeliums am 5. Tag des Wachstums, Cladosporium cladosporioides: 100%
[4]; [13]
  Hemmung des Myzeliums am 5. Tag des Wachstums, Cladosporium cladosporioides: 45%
[4]; [14]
  Hemmung des Myzeliums am 5. Tag des Wachstums, Cladosporium cladosporioides: 100%
Walrotiela subiculesa; [12]
  Hemmung des Myzeliums am 5. Tag des Wachstums, Walrotiela subiculesa: 100%
Walrotiela subiculesa; [13]
  Hemmung des Myzeliums am 5. Tag des Wachstums, Walrotiela subiculesa: 30%
Walrotiela subiculesa; [14]
  Hemmung des Myzeliums am 5. Tag des Wachstums, Walrotiela subiculesa: 100%
Oidium; Konzentration des Stoffes 0,1 %
  Hemmung des Myzeliums am 5. Tag des Wachstums, Oidium: 67%
Oidium; [13]
  Hemmung des Myzeliums am 5. Tag des Wachstums, Oidium: 0%
Oidium; [14]
  Hemmung des Myzeliums am 5. Tag des Wachstums, Oidium: 100%
[5]; [12]
  Hemmung des Myzeliums am 5. Tag des Wachstums, Penicillium charlesii Smith: 56%
[5]; [13]
  Hemmung des Myzeliums am 5. Tag des Wachstums, Penicillium charlesii Smith: 24%
[5]; [14]
  Hemmung des Myzeliums am 5. Tag des Wachstums, Penicillium charlesii Smith: 92%
Geotrichum candidum Link; [12]
  Hemmung des Myzeliums am 5. Tag des Wachstums, Geotrichum candidum Link: 50%
Geotrichum candidum Link; [13]
  Hemmung des Myzeliums am 5. Tag des Wachstums, Geotrichum candidum Link: 3%
Geotrichum candidum Link; [14]
  Hemmung des Myzeliums am 5. Tag des Wachstums, Geotrichum candidum Link: 100%
Cladosporium resinae; [12]
  Hemmung des Myzeliums am 5. Tag des Wachstums, Cladosporium resinae: 43%
Cladosporium resinae; [13]
  Hemmung des Myzeliums am 5. Tag des Wachstums, Cladosporium resinae: 34%
Cladosporium resinae; [14]
  Hemmung des Myzeliums am 5. Tag des Wachstums, Cladosporium resinae: 100%
Penicillium chrysogenum; [12]
  Hemmung des Myzeliums am 5. Tag des Wachstums, Penicillium chrysogenum: 24%
Penicillium chrysogenum; [13]
  Hemmung des Myzeliums am 5. Tag des Wachstums, Penicillium chrysogenum: 4%
Penicillium chrysogenum; [14]
  Hemmung des Myzeliums am 5. Tag des Wachstums, Penicillium chrysogenum: 85%
p.Pseudomonas
  Konzentration der Salze der N-(vinyloxyethyl)dithiocarbaminsäure (100%), die das Wachstum der Bakterien am 5. Tag des Wachstums hemmen, p.Pseudomonas: 0,25%
p.Micrococcus
  Konzentration der Salze der N-(vinyloxyethyl)dithiocarbaminsäure (100%), die das Wachstum der Bakterien am 5. Tag des Wachstums hemmen, p.Micrococcus: 0,25%
p. Escherichiae
  Konzentration der Salze der N-(vinyloxyethyl)dithiocarbaminsäure (100%), die das Wachstum der Bakterien am 5. Tag des Wachstums hemmen, p. Escherichiae: 0,25%
p.Bacillus
  Konzentration der Salze der N-(vinyloxyethyl)dithiocarbaminsäure (100%), die das Wachstum der Bakterien am 5. Tag des Wachstums hemmen, p.Bacillus: 0,25%
weißen Mäusen; intraabdominale Einführung bei weißen Mäusen
  LD50: 267 mg/kg

— patent publication EP0256125A1, “MEANS FOR PREVENTING MICROBIOLOGICAL OVERGROWING OF HARD SURFACE” (priority 1985, dated 1987)
